The record followed here is US9283222B2 (priority 2006, dated 2016).

This assay deals with Recombinant Human Poly(ADP-Ribose) Polymerase (PARP), PARP-1 (Homo sapiens (Human), UniProt P09874). The conditions noted are these: read-out: PARP-1 (Ki); Table 1; text calls the values EC50s.
Sequence of Recombinant Human Poly(ADP-Ribose) Polymerase (PARP), PARP-1 (P09874 whole entry): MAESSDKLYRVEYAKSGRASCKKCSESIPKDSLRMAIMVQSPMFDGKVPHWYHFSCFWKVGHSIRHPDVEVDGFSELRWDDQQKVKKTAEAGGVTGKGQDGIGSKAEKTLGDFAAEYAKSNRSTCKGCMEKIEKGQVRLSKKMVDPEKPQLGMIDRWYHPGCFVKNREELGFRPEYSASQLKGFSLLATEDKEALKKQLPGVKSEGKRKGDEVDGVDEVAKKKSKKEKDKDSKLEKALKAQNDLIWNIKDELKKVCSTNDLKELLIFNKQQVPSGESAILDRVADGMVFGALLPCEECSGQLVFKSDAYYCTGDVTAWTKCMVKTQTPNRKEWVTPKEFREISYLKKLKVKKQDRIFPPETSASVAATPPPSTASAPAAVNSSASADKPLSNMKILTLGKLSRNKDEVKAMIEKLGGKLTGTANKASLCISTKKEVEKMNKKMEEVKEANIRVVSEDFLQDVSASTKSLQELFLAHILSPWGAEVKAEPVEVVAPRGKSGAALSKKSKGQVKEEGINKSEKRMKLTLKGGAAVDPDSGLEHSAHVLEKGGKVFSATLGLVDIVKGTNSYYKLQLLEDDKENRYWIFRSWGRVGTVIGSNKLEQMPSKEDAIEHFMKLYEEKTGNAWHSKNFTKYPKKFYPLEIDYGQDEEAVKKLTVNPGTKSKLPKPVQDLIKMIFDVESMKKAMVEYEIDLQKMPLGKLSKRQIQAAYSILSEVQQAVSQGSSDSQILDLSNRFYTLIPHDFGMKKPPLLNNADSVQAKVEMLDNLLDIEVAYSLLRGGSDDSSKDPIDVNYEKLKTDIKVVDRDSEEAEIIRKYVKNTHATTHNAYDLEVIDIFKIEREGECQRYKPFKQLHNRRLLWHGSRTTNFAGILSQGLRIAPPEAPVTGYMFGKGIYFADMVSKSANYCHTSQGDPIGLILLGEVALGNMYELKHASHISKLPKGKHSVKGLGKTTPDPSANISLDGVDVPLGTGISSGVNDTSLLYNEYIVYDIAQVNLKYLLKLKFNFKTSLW
In general, Ki refers to the equilibrium dissociation constant of an inhibitor or competing ligand from its target. On to `CC(C)c1ccc(NC(=O)c2cccc(Cc3n[nH]c(=O)c4c3CCCC4)c2)cc1` [Example 334, N-(4-isopropylphenyl)-3-((4-oxo-3,4,5,6,7,8-hexahydrophthalazin-1-yl)methyl)benzamide], for which the Ki worked out at 0.191 µM.
Under `CC(C)(C)c1cccc(NC(=O)c2cccc(Cc3n[nH]c(=O)c4c3CCCC4)c2)c1` [Example 335, N-(3-tert-butylphenyl)-3-((4-oxo-3,4,5,6,7,8-hexahydrophthalazin-1-yl)methyl)benzamide] stands 0.122 µM; under `CC(C)(C)c1ccc(NC(=O)c2cccc(Cc3n[nH]c(=O)c4c3CCCC4)c2)cc1` [Example 336, N-(4-tert-butylphenyl)-3-((4-oxo-3,4,5,6,7,8-hexahydrophthalazin-1-yl)methyl)benzamide], 0.363 µM; under `O=C(Nc1ccc(-c2ccccc2)cc1)c1cccc(Cc2n[nH]c(=O)c3c2CCCC3)c1` [Example 337, N-1,1′-biphenyl-4-yl-3-((4-oxo-3,4,5,6,7,8-hexahydrophthalazin-1-yl)methyl)benzamide], 0.124 µM.
Then `Cc1ccc(NC(=O)c2cccc(Cc3n[nH]c(=O)c4c3CCCC4)c2)c(F)c1` [Example 338, N-(2-fluoro-4-methylphenyl)-3-((4-oxo-3,4,5,6,7,8-hexahydrophthalazin-1-yl)methyl)benzamide], with 0.136 µM; and `Cc1ccc(NC(=O)c2cccc(Cc3n[nH]c(=O)c4c3CCCC4)c2)cc1F` [Example 339, N-(3-fluoro-4-methylphenyl)-3-((4-oxo-3,4,5,6,7,8-hexahydrophthalazin-1-yl)methyl)benzamide], with 0.12 µM.
Under `Cc1cc(F)ccc1NC(=O)c1cccc(Cc2n[nH]c(=O)c3c2CCCC3)c1` [Example 340, N-(4-fluoro-2-methylphenyl)-3-((4-oxo-3,4,5,6,7,8-hexahydrophthalazin-1-yl)methyl)benzamide] stands 0.279 µM.
As for `Cc1cc(NC(=O)c2cccc(Cc3n[nH]c(=O)c4c3CCCC4)c2)ccc1F` [Example 341, N-(4-fluoro-3-methylphenyl)-3-((4-oxo-3,4,5,6,7,8-hexahydrophthalazin-1-yl)methyl)benzamide], the Ki is 0.154 µM.
Then `Cc1ccc(NC(=O)c2cccc(Cc3n[nH]c(=O)c4c3CCCC4)c2)cc1Cl` [Example 342, N-(3-chloro-4-methylphenyl)-3-((4-oxo-3,4,5,6,7,8-hexahydrophthalazin-1-yl)methyl)benzamide], with 0.134 µM.
For `Cc1cc(NC(=O)c2cccc(Cc3n[nH]c(=O)c4c3CCCC4)c2)ccc1Cl` [Example 343, N-(4-chloro-3-methylphenyl)-3-((4-oxo-3,4,5,6,7,8-hexahydrophthalazin-1-yl)methyl)benzamide], the Ki was found to be 0.087 µM.
With `Cc1ccc(NC(=O)c2cccc(Cc3n[nH]c(=O)c4c3CCCC4)c2)cc1Br` [Example 344, N-(3-bromo-4-methylphenyl)-3-((4-oxo-3,4,5,6,7,8-hexahydrophthalazin-1-yl)methyl)benzamide], the inhibition constant Ki was determined as 0.194 µM.
Consider `Cc1cc(NC(=O)c2cccc(Cc3n[nH]c(=O)c4c3CCCC4)c2)ccc1Br` [Example 345, N-(4-bromo-3-methylphenyl)-3-((4-oxo-3,4,5,6,7,8-hexahydrophthalazin-1-yl)methyl)benzamide], for which the Ki turned out to be 0.149 µM.
Then `COc1ccc(NC(=O)c2cccc(Cc3n[nH]c(=O)c4c3CCCC4)c2)cc1F` [Example 346, N-(3-fluoro-4-methoxyphenyl)-3-((4-oxo-3,4,5,6,7,8-hexahydrophthalazin-1-yl)methyl)benzamide], with 0.033 µM.
Turning to `COc1cc(NC(=O)c2cccc(Cc3n[nH]c(=O)c4c3CCCC4)c2)cc(C(F)(F)F)c1` [Example 347, N-(3-methoxy-5-(trifluoromethyl)phenyl)-3-((4-oxo-3,4,5,6,7,8-hexahydrophthalazin-1-yl)methyl)benzamide], the inhibitory constant (Ki) was 0.337 µM.
Under `Cc1cccc(O)c1NC(=O)c1cccc(Cc2n[nH]c(=O)c3c2CCCC3)c1` [Example 348, N-(2-hydroxy-6-methylphenyl)-3-((4-oxo-3,4,5,6,7,8-hexahydrophthalazin-1-yl)methyl)benzamide] stands 0.259 µM; under `Cc1c(O)cccc1NC(=O)c1cccc(Cc2n[nH]c(=O)c3c2CCCC3)c1` [Example 349, N-(3-hydroxy-2-methylphenyl)-3-((4-oxo-3,4,5,6,7,8-hexahydrophthalazin-1-yl)methyl)benzamide], 0.055 µM.
As to `Cc1ccc(NC(=O)c2cccc(Cc3n[nH]c(=O)c4c3CCCC4)c2)cc1O` [Example 350, N-(3-hydroxy-4-methylphenyl)-3-((4-oxo-3,4,5,6,7,8-hexahydrophthalazin-1-yl)methyl)benzamide], the inhibition constant (Ki) is 0.143 µM.
Take `COc1ccc(C)cc1NC(=O)c1cccc(Cc2n[nH]c(=O)c3c2CCCC3)c1` [Example 351, N-(2-methoxy-5-methylphenyl)-3-((4-oxo-3,4,5,6,7,8-hexahydrophthalazin-1-yl)methyl)benzamide]: the inhibition constant (Ki) was 0.277 µM.
Under `COc1cc(NC(=O)c2cccc(Cc3n[nH]c(=O)c4c3CCCC4)c2)ccc1C` [Example 352, N-(3-methoxy-4-methylphenyl)-3-((4-oxo-3,4,5,6,7,8-hexahydrophthalazin-1-yl)methyl)benzamide] stands 0.154 µM.
Under `COc1ccc(NC(=O)c2cccc(Cc3n[nH]c(=O)c4c3CCCC4)c2)cc1O` [Example 353, N-(3-hydroxy-4-methoxyphenyl)-3-((4-oxo-3,4,5,6,7,8-hexahydrophthalazin-1-yl)methyl)benzamide] stands 0.059 µM; under `CCOc1ccccc1NC(=O)c1cccc(Cc2n[nH]c(=O)c3c2CCCC3)c1` [Example 354, N-(2-ethoxyphenyl)-3-((4-oxo-3,4,5,6,7,8-hexahydrophthalazin-1-yl)methyl)benzamide], 0.363 µM; under `CCCOc1ccc(NC(=O)c2cccc(Cc3n[nH]c(=O)c4c3CCCC4)c2)cc1` [Example 355, 3-((4-oxo-3,4,5,6,7,8-hexahydrophthalazin-1-yl)methyl)-N-(4-propoxyphenyl)benzamide], 0.092 µM.
As for `COc1ccc(C(C)(C)C)cc1NC(=O)c1cccc(Cc2n[nH]c(=O)c3c2CCCC3)c1` [Example 356, N-(5-tert-butyl-2-methoxyphenyl)-3-((4-oxo-3,4,5,6,7,8-hexahydrophthalazin-1-yl)methyl)benzamide], the inhibitory constant (Ki) turned out to be 0.18 µM.
Under `COc1ccc(NC(C)=O)cc1NC(=O)c1cccc(Cc2n[nH]c(=O)c3c2CCCC3)c1` [Example 357, N-(5-(acetylamino)-2-methoxyphenyl)-3-((4-oxo-3,4,5,6,7,8-hexahydrophthalazin-1-yl)methyl)benzamide] stands 0.402 µM; under `O=C(Nc1ccc2c(c1)OCCO2)c1cccc(Cc2n[nH]c(=O)c3c2CCCC3)c1` [Example 358, N-2,3-dihydro-1,4-benzodioxin-6-yl-3-((4-oxo-3,4,5,6,7,8-hexahydrophthalazin-1-yl)methyl)benzamide], 0.066 µM.
Under `COc1cc(OC)c(NC(=O)c2cccc(Cc3n[nH]c(=O)c4c3CCCC4)c2)cc1Cl` [Example 359, N-(5-chloro-2,4-dimethoxyphenyl)-3-((4-oxo-3,4,5,6,7,8-hexahydrophthalazin-1-yl)methyl)benzamide] stands 0.151 µM.
